EC50, IC50 and AC50 data for 7 molecules are collected here from ChEMBL document CHEMBL1201862, “PubChem BioAssay data set” (2004).

Active and inactive are the calls of the source.

In general, EC50 refers to the concentration at which the effect is half-maximal. As usually defined, the IC50 is the concentration that inhibits the measured activity by half. For orientation: AC50 means the midpoint of the concentration-response curve, whichever way the signal moves.

Test [1] can be described thus: alpha-synuclein stem-loop luciferase translation blockers – H4 neuroglioma cells, luminescence, confirmation (AID 1988). Type of test: functional, cell-based.
A short description of test [2]: Luminescence Cell-Based Dose Response HTS to Identify Inhibitors of 5'UTR Stem-Loop Driven Prion Protein mRNA Translation in H4 Neuroglioblastoma Cells. [Related pubchem assays: 1827 (Project Summary), 1813 (Primary HTS)]. Type of test: functional.
For test [3], the target named is RNA-editing ligase 1, mitochondrial (Trypanosoma brucei brucei, UniProt P86926). The test is described as follows: inhibition of trypanosome RNA editing ligase – biochemical, fluorescence, Trypanosoma brucei, dose response (AID 1117295). In kind it is functional.
Test [4] is described as follows: luciferase reporter signal suppression in cells – H4 neuroglioma cells, luminescence, dose response (AID 1990). In kind it is functional, cell-based.
Test [5] addresses T1, Sentrin-specific protease 7 (Homo sapiens, UniProt Q9BQF6).
T1 sequence (Q9BQF6 whole entry): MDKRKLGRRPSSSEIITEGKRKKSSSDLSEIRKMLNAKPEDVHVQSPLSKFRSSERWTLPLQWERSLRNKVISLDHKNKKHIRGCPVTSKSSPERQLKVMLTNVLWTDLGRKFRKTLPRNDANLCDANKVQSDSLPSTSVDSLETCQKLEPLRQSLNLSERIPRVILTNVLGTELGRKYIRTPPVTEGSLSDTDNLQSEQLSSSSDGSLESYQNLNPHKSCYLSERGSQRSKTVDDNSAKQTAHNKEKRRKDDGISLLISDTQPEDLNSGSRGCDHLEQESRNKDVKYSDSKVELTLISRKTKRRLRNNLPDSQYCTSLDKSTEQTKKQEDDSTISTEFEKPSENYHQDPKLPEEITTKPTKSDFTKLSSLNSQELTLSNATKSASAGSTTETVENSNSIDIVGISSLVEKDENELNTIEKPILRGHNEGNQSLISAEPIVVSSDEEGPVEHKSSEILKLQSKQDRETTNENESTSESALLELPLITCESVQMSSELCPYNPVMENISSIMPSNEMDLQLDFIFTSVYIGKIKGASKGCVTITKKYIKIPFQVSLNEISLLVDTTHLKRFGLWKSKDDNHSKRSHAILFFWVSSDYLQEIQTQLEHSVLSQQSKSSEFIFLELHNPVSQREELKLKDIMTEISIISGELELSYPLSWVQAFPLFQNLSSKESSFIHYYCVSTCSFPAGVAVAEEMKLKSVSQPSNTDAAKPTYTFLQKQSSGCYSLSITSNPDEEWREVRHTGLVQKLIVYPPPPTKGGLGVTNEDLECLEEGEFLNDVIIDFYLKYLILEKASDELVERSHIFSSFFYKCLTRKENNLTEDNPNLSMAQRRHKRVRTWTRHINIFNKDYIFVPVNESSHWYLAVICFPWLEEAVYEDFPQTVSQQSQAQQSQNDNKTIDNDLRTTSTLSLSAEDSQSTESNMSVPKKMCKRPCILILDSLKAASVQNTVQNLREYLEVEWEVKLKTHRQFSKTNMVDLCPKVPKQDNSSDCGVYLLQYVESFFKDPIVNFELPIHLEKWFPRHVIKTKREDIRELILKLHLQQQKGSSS
In kind it is functional.

Test [6] addresses T2, Sentrin-specific protease 6 (Homo sapiens, UniProt Q9GZR1).
T2 sequence (Q9GZR1 whole entry): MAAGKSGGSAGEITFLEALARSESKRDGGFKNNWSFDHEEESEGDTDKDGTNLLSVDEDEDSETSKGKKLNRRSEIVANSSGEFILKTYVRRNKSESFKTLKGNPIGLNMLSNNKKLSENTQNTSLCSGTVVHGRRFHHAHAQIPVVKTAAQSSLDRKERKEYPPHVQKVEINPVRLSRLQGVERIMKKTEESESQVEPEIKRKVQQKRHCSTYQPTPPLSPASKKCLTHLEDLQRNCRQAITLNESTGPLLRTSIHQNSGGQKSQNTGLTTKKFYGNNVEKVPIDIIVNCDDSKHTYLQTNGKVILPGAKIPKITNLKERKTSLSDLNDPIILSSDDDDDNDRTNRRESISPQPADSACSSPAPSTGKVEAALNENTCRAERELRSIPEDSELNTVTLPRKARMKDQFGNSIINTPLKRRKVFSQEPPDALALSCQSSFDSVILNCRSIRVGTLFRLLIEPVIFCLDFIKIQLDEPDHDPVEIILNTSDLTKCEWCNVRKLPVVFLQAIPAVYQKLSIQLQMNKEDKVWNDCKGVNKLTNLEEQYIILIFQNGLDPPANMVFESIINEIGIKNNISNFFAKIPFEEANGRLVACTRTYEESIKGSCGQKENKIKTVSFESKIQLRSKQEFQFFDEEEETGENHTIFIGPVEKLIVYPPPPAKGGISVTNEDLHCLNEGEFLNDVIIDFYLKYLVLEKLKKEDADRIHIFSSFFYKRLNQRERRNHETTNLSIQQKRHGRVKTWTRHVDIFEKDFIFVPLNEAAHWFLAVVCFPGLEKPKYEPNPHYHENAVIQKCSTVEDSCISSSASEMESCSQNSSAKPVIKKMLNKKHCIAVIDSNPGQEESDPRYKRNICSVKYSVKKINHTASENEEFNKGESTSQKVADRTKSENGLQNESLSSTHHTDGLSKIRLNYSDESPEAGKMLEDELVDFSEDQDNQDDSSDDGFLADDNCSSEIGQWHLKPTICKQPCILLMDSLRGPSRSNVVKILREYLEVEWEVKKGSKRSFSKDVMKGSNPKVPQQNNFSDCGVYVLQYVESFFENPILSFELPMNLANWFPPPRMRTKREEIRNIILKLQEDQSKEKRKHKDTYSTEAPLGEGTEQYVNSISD
Type of test: functional.

For a further test, the target named is T3, Caspase-6 (Homo sapiens, UniProt P55212).
T3 sequence (P55212 whole entry): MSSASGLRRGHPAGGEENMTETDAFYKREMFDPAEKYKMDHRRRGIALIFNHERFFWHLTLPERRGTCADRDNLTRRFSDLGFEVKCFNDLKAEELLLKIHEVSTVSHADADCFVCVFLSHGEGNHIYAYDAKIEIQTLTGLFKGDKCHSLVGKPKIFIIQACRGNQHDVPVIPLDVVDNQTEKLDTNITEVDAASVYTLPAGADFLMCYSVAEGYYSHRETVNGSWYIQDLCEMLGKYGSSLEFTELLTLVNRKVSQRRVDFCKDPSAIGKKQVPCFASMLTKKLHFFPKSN
The test is described as follows: inhibition of CASP6 peptide cleavage – biochemical, VEID-R110 fluorescence, cherry-pick, dose response (AID 720632).

The target in the next test is Caspase-9 (Homo sapiens, UniProt P55211). The test is described as follows: inhibitors of purified CASP9 protease – biochemical, fluorescence, plate reader, cherry-picked samples, selectivity assay for caspase-6 inhibitor project, dose response (AID 743293).
The target of another test is T4, Caspase-3 (Homo sapiens, UniProt P42574).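 Note: Dose-response selectivity test against caspase-3 for candidate inhibitors of sentrin-specific proteases (SENPs).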
T4 sequence (P42574 whole entry): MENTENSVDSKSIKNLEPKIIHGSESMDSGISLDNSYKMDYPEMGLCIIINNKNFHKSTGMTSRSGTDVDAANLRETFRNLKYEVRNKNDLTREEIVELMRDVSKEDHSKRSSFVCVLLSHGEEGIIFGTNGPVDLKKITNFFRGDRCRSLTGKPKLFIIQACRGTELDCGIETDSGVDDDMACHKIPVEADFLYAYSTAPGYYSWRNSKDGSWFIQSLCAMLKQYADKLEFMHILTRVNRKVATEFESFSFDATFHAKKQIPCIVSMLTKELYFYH
Type of test: functional.

Test [7] has as its target Tyrosyl-DNA phosphodiesterase 2 (Homo sapiens, UniProt O95551). The test is described as follows: potency against TDP2 phosphodiesterase activity – biochemical, epi absorbance, IC50, dose response (AID 743297).
Test [8] deals with T5, Sentrin-specific protease 8 (Homo sapiens, UniProt Q96LD8).
T5 sequence (Q96LD8 whole entry): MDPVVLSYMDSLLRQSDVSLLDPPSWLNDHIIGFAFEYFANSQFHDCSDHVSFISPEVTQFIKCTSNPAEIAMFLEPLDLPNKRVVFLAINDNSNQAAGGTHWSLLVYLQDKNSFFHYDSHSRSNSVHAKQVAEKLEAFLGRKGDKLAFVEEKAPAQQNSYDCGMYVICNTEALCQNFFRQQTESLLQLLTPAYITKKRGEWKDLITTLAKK
Type of test: functional.

Test [9] addresses T6, Mitochondrial peptide methionine sulfoxide reductase (Bos taurus, UniProt P54149).
T6 sequence (P54149 whole entry): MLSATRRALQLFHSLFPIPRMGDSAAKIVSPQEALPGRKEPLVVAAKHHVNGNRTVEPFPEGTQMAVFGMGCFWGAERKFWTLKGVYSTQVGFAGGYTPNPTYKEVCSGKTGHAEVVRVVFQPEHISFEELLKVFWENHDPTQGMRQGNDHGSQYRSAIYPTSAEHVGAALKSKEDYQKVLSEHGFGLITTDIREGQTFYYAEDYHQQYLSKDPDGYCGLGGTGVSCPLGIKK
In words: Absorbance-based biochemical high throughput dose response assay for activators of Methionine sulfoxide reductase A (MsrA). Type of test: functional.

For another test, the target named is Caspase-8 (Homo sapiens, UniProt Q14790). In words: inhibitors of purified CASP8 protease – biochemical, Z-IETD-R110 fluorescence, cherry-picked samples, selectivity assay for caspase-6 inhibitor project, dose response (AID 743294).
A short description of test [10]: ATP-based viability loss in HEK293T cells – cell-based, CellTiter-Glo luminescence, dry powder, set 2, cytotoxicity control, dose response (AID 720595). In kind it is functional. Particulars: HEK293.
In another test the target is Nonstructural protein 1 (Influenza A virus, UniProt Q194T2). In kind it is functional, Influenza A virus (A/California/07/2009(H1N1)).
For test [11], the target named is Muscarinic acetylcholine receptor M5 (Rattus norvegicus, UniProt P08911). In words: Discovery of Selective Novel Positive Allosteric Modulators (PAM) of the Muscarinic Receptor (M5) in CHO cells expressing Rattus Norvegicus M5 receptor. Type of test: functional, cell-based.
Test [12] deals with T7, Muscarinic acetylcholine receptor M5 (Homo sapiens, UniProt P08912). In words: potentiation of ACh response at human M5 – cell-based, concentration-response curve, dose response (AID 651878). Type of test: functional.
Test [13] addresses T7, Muscarinic acetylcholine receptor M5. The test is described as follows: agonist curve shift by M5 PAMs – cell-based, calcium fluorescence, mechanism study (AID 651776). Type of test: functional.
A short description of test [14]: Dd2 parasite growth inhibition in erythrocytes – SYBR Green, dry powder samples, set 9, dose response (AID 1159568). Type of test: functional, cell-based.
Test [15] has as its target Metabotropic glutamate receptor 7 (Homo sapiens, UniProt Q14831). In words: potentiation of glutamate EC20 at mGlu7 – cell-based, calcium mobilization, Galpha15, dose response (AID 743384). In kind it is functional. A general note: A change in cytosolic calcium serves as a functional read-out for many receptors and channels.
In the next test the target is Phospholipase D1 (Homo sapiens, UniProt Q13393). In words: PLD1 Cellular Concentration Response Study. In kind it is functional.
A further test addresses Phospholipase D2 (Homo sapiens, UniProt O14939). In words: PLD2 Cellular Concentration Response Study. In kind it is functional.

T7 sequence (P08912 whole entry): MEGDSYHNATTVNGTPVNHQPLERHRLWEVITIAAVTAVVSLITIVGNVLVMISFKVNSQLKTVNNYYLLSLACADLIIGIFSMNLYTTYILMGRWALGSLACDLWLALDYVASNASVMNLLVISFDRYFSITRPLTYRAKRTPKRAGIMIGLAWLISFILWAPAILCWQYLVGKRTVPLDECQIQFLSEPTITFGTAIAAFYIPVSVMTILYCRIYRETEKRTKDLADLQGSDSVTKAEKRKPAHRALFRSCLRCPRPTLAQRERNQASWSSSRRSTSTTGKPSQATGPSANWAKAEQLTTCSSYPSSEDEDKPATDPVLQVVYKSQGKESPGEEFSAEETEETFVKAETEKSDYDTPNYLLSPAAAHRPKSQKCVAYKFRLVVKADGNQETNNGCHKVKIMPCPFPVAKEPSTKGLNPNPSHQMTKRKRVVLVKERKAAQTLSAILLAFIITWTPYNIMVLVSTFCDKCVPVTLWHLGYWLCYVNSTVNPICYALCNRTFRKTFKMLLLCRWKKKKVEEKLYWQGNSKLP
Chain of Phospholipase D1 (Q13393 whole entry): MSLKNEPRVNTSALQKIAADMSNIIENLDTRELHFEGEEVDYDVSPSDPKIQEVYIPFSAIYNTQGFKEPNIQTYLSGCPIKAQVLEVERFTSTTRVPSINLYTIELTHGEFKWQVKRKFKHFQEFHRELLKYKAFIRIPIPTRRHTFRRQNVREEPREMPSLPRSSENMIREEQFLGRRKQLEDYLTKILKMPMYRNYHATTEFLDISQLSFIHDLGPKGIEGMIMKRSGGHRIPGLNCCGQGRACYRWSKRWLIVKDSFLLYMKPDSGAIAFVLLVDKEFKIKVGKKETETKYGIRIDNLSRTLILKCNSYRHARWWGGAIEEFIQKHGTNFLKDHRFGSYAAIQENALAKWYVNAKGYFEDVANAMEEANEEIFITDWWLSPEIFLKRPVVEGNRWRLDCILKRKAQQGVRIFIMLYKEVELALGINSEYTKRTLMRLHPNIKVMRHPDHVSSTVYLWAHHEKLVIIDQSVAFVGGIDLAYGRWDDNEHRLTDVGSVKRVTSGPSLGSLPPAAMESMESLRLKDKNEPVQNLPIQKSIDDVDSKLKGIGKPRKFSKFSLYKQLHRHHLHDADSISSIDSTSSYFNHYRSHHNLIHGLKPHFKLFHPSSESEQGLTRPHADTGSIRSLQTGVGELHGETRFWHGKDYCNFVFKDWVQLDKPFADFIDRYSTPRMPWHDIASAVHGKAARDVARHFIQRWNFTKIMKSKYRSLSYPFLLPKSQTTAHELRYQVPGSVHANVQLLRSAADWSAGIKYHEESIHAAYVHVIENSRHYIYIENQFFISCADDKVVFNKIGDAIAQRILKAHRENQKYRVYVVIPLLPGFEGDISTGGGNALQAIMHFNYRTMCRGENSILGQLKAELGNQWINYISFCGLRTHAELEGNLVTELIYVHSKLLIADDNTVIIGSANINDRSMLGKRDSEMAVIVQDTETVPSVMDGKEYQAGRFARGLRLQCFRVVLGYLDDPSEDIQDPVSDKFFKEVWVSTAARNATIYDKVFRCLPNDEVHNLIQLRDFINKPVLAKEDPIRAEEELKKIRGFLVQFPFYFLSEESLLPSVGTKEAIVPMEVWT
Chain of Nonstructural protein 1 (Q194T2 whole entry): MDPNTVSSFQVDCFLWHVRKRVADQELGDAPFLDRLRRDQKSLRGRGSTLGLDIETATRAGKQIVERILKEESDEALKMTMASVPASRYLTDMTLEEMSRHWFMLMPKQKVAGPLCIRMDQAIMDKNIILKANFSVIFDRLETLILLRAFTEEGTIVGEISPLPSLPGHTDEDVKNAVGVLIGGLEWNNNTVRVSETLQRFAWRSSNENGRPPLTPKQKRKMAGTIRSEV
Chain of Caspase-8 (Q14790 217-374 limits assumed): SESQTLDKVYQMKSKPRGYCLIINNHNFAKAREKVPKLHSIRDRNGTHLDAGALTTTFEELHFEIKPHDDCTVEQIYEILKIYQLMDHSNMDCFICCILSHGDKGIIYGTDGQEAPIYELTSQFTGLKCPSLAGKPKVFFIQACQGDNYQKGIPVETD
Chain of Caspase-8 (Q14790 385-479 limits assumed): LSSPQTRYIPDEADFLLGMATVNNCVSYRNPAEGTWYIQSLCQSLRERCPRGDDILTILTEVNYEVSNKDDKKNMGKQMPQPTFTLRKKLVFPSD
Chain of Muscarinic acetylcholine receptor M5 (Rattus norvegicus, UniProt P08911) (P08911 whole entry): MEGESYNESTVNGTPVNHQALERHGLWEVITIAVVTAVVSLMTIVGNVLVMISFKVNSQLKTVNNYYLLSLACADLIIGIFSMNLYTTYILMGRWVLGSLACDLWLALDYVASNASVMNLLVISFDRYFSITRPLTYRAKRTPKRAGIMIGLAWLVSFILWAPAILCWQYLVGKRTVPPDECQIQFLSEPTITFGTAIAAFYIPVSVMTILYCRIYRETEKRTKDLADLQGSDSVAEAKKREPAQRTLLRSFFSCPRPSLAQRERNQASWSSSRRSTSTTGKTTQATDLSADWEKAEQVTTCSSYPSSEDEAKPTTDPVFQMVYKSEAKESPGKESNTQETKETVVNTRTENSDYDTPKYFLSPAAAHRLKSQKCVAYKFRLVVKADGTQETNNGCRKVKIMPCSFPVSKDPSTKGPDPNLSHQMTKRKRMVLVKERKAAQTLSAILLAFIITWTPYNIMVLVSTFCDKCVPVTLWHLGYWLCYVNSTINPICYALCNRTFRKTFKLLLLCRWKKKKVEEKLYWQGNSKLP
Chain of RNA-editing ligase 1, mitochondrial (P86926 whole entry): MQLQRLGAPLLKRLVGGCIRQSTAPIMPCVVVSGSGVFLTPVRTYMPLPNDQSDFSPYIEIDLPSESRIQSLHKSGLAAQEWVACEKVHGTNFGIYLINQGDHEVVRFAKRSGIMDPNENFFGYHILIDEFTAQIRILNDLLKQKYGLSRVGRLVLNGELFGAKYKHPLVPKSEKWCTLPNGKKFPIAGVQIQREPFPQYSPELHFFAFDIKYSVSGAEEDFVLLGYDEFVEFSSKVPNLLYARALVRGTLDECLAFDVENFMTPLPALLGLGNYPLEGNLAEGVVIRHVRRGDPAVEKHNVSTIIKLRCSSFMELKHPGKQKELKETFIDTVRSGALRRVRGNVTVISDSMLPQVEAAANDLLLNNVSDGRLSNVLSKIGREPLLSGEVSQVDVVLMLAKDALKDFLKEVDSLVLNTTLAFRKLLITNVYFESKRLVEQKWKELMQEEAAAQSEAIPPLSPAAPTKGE
Chain of Metabotropic glutamate receptor 7 (Q14831 whole entry): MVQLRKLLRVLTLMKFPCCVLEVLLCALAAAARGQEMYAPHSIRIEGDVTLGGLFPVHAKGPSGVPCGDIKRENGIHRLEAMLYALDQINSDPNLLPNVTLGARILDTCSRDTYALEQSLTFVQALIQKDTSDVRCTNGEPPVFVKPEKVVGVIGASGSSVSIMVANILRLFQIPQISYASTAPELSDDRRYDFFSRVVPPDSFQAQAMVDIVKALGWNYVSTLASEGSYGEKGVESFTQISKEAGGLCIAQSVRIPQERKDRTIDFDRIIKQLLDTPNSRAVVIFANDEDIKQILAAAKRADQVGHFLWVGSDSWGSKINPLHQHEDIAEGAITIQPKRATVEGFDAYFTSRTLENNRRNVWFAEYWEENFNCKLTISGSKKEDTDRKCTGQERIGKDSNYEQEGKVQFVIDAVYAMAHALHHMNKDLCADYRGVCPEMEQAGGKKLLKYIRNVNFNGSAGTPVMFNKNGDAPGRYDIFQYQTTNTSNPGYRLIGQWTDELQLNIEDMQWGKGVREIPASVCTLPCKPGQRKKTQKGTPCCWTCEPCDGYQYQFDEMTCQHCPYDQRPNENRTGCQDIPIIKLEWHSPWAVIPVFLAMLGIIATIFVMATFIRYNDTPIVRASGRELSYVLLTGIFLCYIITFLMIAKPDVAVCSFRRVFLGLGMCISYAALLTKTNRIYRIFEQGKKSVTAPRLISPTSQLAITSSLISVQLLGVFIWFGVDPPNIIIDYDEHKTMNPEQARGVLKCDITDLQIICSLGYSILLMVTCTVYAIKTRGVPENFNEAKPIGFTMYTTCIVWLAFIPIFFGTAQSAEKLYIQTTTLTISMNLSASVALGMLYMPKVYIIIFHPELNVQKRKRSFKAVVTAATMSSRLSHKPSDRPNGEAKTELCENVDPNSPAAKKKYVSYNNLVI
Chain of Tyrosyl-DNA phosphodiesterase 2 (O95551 whole entry): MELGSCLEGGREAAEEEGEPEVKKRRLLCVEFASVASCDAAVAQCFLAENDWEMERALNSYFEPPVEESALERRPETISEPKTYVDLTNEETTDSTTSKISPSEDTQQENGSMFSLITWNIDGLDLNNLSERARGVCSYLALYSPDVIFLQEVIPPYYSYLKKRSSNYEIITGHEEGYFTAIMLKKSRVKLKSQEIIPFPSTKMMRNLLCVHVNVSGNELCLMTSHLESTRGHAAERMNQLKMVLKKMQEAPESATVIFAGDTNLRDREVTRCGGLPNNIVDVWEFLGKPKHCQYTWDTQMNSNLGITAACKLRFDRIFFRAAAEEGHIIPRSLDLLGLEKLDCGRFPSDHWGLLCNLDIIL
Chain of Caspase-9 (P55211 1-315 limits assumed): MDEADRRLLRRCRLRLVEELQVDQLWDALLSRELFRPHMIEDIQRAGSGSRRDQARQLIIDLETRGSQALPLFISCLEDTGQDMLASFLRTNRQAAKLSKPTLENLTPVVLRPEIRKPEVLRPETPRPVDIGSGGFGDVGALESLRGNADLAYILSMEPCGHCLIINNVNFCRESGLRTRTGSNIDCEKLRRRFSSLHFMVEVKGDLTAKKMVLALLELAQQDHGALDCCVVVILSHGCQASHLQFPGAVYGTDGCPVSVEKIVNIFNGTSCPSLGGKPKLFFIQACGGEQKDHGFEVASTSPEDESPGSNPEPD
Chain of Caspase-9 (P55211 331-416 limits assumed): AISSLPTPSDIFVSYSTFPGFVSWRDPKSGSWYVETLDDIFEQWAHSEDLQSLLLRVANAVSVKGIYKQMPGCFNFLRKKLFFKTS

Take `O=c1cc(CN2CCc3ccccc32)nc2sccn12`: the figures for the 50% effective concentration (EC50) in test [1], in test [2] and in [4] were 10.9 µM (active), 0.231 µM (active) and 18.2 µM (active), respectively. Besides, the IC50 in test [3] was 22.9 µM (inactive).

Turning to `COc1cc(NC(=O)COC(=O)c2ccc([N+](=O)[O-])s2)cc(OC)c1OC`, the IC50 is 5.51 µM (active) in test [5]; 3.82 µM (active) in test [6]; 8.45 µM (active) at Caspase-3; 48.3 µM (inactive) in test [7]; 3.88 µM (active) in [8]. Further, the concentration at half-maximal activity (AC50) was 2.44 µM (active) on Caspase-6, 21.5 µM (active) on Caspase-9 and 20.4 µM (active) at Caspase-8. In test [9], the EC50 is 63.6 µM (inactive).

For `COC(=O)Cc1cc(O)n(-c2nc3ccccc3[nH]2)n1`, in [10], the half-maximal activity concentration (AC50) is 30.4 µM (active). Further, the IC50 at Nonstructural protein 1 is 12.5 µM (active).

Turning to `O=C1C(=O)N(CCOc2ccccc2)c2ccc(OC(F)(F)F)cc21`, the EC50 was 0.466 µM in test [11], 0.55 µM in test [12] and 51.6 µM (active) in test [13].

For the molecule `CC(C)NC(=O)NCC[C@@H]1CC[C@H](NS(=O)(=O)c2ccc(Oc3ccccc3)cc2)[C@@H](CO)O1`, the half-maximal activity concentration (AC50) in test [14] is 32.1 µM (active).

Turning to `COc1ccc(SCC(=O)c2cc(C)n(-c3ccc(OC(F)F)cc3)c2C)cc1`, in test [15], the EC50 is 3.16 µM (active).

For the molecule `O=C(NCCN1CCC2(CC1)C(=O)NCN2Cc1ccccn1)c1ccc2ccccc2c1`, the half-maximal inhibitory concentration (IC50) was 2.63 µM (active) at Phospholipase D1 and 0.08 µM (active) on Phospholipase D2.
